Patent US4617302A, “Inotropic agents” (Eli Lilly and Company, priority 1984, dated 1986)

Columns and labels:
Cat Papillary Muscles = experiment: Positive inotropic activity in isolated cat papillary muscles; details: Felis catus, control = 100 percent, average of 2 to 8 muscles, read-out: Contractility of Papillary Muscle, peak response as percent of control; for activity at 100 µM: Compound Concentration 10^-4 M; for activity at 10 µM: Compound Concentration 10^-5 M
Method: Cats of either sex were anesthetized with Metofane (1,1-difluoro-2,2-dichloroethyl methyl ether, Pittman-Moore). Their hearts were immediately removed and the papillary muscles dissected and suspended in individual organ baths. A platinum hook secured one end of the muscle to an electrode mounted in the bottom of the bath, and a silk thread attached the tendon to a Statham isometric transducer. The baths contained Krebs-Henseleit solution (36° C., bubbled with 95 percent oxygen - 5 percent carbon dioxide) of the following millimolar composition: NaCl, 118; KCl, 4.5; CaCl2, 2.5; KH2 PO4, 1.1; MgSO4, 1.2; NaHCO3, 25; and glucose, 11.
A base-line tension of 1.5 g was applied to each muscle. Square-wave pulses (5.0 msec. in duration, three times threshold voltage) delivered through the hook electrode and a second electrode positioned near the top of the muscle evoked 12 contractions/minute, which were recorded on a Grass polygraph. After the muscles had equilibrated for 60 minutes, the recorder gain was adjusted so that the pen deflected 10 mm. The test compound was introduced in a solution of normal saline in an amount to bring the final concentration of the compound to 10^-5 or 10^-4 molar. Increases in contractility were tabulated as millimeters of pen deflection in excess of the baseline value. In each experiment the maximum contractility was measured. Test results are summarized in Table I and are expressed as percent of control (control=100 percent). Values are the average of results from 2 to 8 muscles.

[1] = test system: anesthetized dog (ventricular contractility); experiment: Ventricular contractility in the anesthetized dog; assay type: in vivo; details: Canis lupus familiaris, iv; anesthetized mongrel dogs, i.v. bolus in normal saline; by interpolation; read-out: ED50, dose required to produce a peak increase in contractility of 50%
Method: Mongrel dogs of either sex ranging in weight from 7 to 14 kg were used. Anesthesia was induced with sodium pentobarbital (30 mg/kg, i.v.) and maintained with supplemental doses as required. A positive-pressure pump was used to ventilate the dogs through an endotracheal tube (18 strokes/minute, 20 ml/kg stroke^-1), and a heating pad kept the body temperature at 37°-38° C.
Femoral arterial blood pressure was measured through a polyethylene catheter filled with heparin solution (16 units/ml) and connected to a Statham pressure transducer. A strain-gauge arch sutured to the right ventricle of the heart measured cardiac contractility. Tension on the gauge was adjusted to 50 g and the gain of the recorder (Beckman dynograph) was set so that 50 g caused a 10-mm pen deflection. Cardiac contractile tension was measured as millimeters of pen deflection or grams of tension. The test compounds were administered as an i.v. bolus (2-5 ml) in a normal saline vehicle following a 30-45 minute equilibrium period. […] The maximum effects on contractility at various dose levels were determined and plotted and the dose required to produce a 50% increase in contractility (ED50) was determined by interpolation.

[2] = test system: conscious dogs (contractility, LVdP/dt); experiment: Cardiac contractility in conscious dogs; assay type: in vivo; details: Canis lupus familiaris, po; conscious mongrel dogs, fasted eighteen hours, administered in gelatin capsules; by interpolation; read-out: ED50, dose required to produce a 50-percent increase in contractility
Description: Mongrel dogs of either sex weighing 15-36 kg were chronically instrumented to monitor peak systolic pressure, heart rate, left ventricular pressure and its first derivative, LVdP/dt at 60 mm of mercury. Under halothane-nitrous oxide anesthesia, a precalibrated Konigsberg P22 Pressure Transducer was implanted into the left ventricle through a stab wound at the apex. Following recovery from surgery, a minimum of two weeks was allowed to train the dogs to lie quietly for four-hour periods. This conditioning was necessary to obtain stable, reproducible results from day to day. Dogs were fasted eighteen hours before an experiment. Gross behavioral observations of animals were made throughout each study. Compounds or placebo (lactose) were administered in gelatin capsules. The maximum effects on contractility at various dose levels were determined and plotted and the dose required to produce a 50-percent increase in contractility (ED50) was determined by interpolation. The ED50 for the compound of Example 1 was determined to be 50 mcg/kg.

SMILES	activity at 100 µM (Cat Papillary Muscles) [%]	activity at 10 µM (Cat Papillary Muscles) [%]	ED50 [1] [mg/kg]	ED50 [2] [mg/kg]
O=C1CCC(c2ccc3c(c2)C2(CCC2)C(=O)N3)=NN1 [Example 3, 5'-(1,4,5,6-tetrahydro-6-oxo-3-pyridazinyl)-spiro[cyclobutane-1,3'-[3H]indol]-2'(1'H)-one]	132	138	0.025	
O=C1CCC(c2ccc3c(c2)C2(CC2)C(=O)N3)=NN1 [Example 1, 5'-(1,4,5,6-tetrahydro-6-oxo-3-pyridazinyl)-spiro[cyclopropane-1,3'-[3H]indol]-2'(1'H)-one]			0.0019	0.05
O=C1CCC(c2ccc3c(c2)C2(CCCC2)C(=O)N3)=NN1 [Example 2, 5'-(1,4,5,6-tetrahydro-6-oxo-3-pyridazinyl)-spiro[cyclopentane-1,3'-[3H]indol]-2'(1'H)-one]	134	132	0.07	
